Drawing on PubChem BioAssay AID624001 (Vanderbilt Specialized Chemistry Center, 2012), this text covers IC50 for 1 molecule.

For the test, the target named is Phospholipase D1 (Homo sapiens) + Phospholipase D1 (Homo sapiens) (UniProt Q13393+Q13393). Put plainly: phospholipase D1 inhibition, isolated enzyme – biochemical, Lib32, assay 3A, dose response (AID 624001). As to conditions: purified PLD1 enzyme activity assay.
Sequence of Phospholipase D1 (Homo sapiens) + Phospholipase D1 (Homo sapiens) (Q13393 whole entry, looked up): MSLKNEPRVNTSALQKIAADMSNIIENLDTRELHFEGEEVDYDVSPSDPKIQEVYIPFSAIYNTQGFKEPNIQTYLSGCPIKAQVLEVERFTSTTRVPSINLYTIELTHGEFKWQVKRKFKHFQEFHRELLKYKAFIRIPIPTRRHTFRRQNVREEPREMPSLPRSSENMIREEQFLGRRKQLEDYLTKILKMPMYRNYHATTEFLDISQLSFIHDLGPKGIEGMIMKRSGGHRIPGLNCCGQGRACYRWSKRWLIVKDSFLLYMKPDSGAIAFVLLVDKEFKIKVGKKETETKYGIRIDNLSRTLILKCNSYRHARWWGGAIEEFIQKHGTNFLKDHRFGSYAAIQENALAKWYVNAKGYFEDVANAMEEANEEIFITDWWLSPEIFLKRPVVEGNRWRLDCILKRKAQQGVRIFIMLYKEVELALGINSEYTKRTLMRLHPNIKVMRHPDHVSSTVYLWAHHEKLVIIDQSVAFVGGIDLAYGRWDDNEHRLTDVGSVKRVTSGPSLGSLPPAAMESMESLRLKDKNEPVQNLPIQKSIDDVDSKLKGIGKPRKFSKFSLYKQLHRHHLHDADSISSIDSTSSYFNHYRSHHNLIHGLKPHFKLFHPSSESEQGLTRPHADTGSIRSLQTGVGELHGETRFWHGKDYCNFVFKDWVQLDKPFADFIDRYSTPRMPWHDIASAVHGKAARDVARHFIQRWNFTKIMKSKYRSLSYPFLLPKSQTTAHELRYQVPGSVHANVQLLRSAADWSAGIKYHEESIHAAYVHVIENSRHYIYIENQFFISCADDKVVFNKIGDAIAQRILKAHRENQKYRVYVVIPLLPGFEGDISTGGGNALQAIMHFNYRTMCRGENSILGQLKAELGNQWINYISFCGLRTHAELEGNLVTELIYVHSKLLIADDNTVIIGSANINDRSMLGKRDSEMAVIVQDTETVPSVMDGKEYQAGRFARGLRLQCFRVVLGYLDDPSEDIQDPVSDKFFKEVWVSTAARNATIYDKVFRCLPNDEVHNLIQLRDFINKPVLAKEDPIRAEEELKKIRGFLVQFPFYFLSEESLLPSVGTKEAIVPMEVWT
Sequence of Phospholipase D1 (Homo sapiens) + Phospholipase D1 (Homo sapiens) (Q13393 whole entry, looked up): as above

With `COc1cc(C(=O)NCCN2CCC3(CC2)C(=O)NCN3c2cccc(F)c2)cc(OC)c1OC`, the IC50 is 20 µM.
